{"source": "patent US20020155172A1", "about": "“Methods and compounds for decreasing cell toxicity or death” (priority 2000, published 2002)", "key": {"R62 mice": {"test_system": "R62 mice", "assay": "EM48 immunostaining of polyglutamine aggregates in brain", "format": "in vivo", "procedure": "To test whether Congo red can disrupt and inhibit the formation of expanded polyglutamine oligomers in vivo, we analyzed the brain samples from control- and Congo red-treated […] mice. Mice were anesthetized with isoflurane, perfused intracardially with 4% paraformaldehyde in phosphate buffered saline (pH 7.4). The brain was removed and washed several times in PBS before overnight incubation in PBS containing 30% sucrose, and was then embedded in OTC (Sigma, MO.). Cryostat frozen sections were washed in PBS, and non-specific binding was blocked with 5% normal goat serum in PBS containing 0.1% Triton. Sections were stained using an anti-EM48 antibody at a 1:1000 dilution, and immunoreactivity was detected using the ABC kit, as described by the manufacturer (Vector, Co.). Some slides were lightly counter stained with hematoxylin."}, "[1]": {"test_system": "non-transfected HeLa cells", "assay": "Total cellular protein degradation", "format": "cell-based", "details": "Congo red 100 μM, ZVAD 100 μM, MG132 10 μM; H3-tyrosine release, 0 to 180 minutes", "procedure": "FIG. 8C is a graph of the effect of effect of Congo red, ZVAD, or the proteosome inhibitor MG132 on total cellular protein degradation in non-transfected HeLa cells.\nTo rule out the possibility that Congo red may have an effect on protein degradation in general, we tested the effect of Congo red on proteosome degradation. Rates of total cellular protein degradation experiments, from cells seeded in 12 well dishes at 2×10^4, treated with Congo red (100 μM), ZVAD (100 μM), or the proteosome inhibitor MG132 (10 μM) and labeled with 5 μCi/ml of H^3-tyrosine for 1 hour. One hundred microliter culture medium aliquots were collected at 0, 30, 60, 90, 120, and 180 minute time points, and the levels of H^3-tyrosine were determined using an LS6000 scintillation counter (Beckman, Co)."}, "[2]": {"test_system": "R62 mice and wild-type mice", "assay": "Body weight", "format": "in vivo", "excerpt": "FIG. 10A is a graph showing the effect of Congo red or PBS (vehicle) on body weight in HD transgenic mice between 9 and 11 weeks of age (top graph) and between 9 and 13 weeks of age (bottom graph). Mice were infused intraperitoneally (IP) or by intracerebroventricular cannula (ICV) implanted into the predetermined coordinates on the left ventricle, or by both routes.\n(§1) In addition, the ability of Congo red to inhibit the formation as well as to disrupt preformed polyglutamine oligomers allowed us to examine the role of polyglutamine aggregates in neuronal dysfunction and degeneration characteristic of polyglutamine expansion diseases. In these studies, we used the animal model of Huntington's disease (R62), which expresses the truncated form of huntingtin with 139 CAG repeats Mangiarini et al. (supra). We took advantage of our finding that in addition to inhibiting polyglutamine oligomerization, Congo red also disrupts pre-formed oligomers, thus allowing assessment of the impact of Congo red on disease progression after formation of polyglutamine aggregates and the onset of symptoms. […]\nOne of the common features of Huntington's disease is severe weight loss, proposed to be due to metabolic defects as a part of the systemic pathology of the expanded polyglutamine repeat diseases. We monitored the body weight of mice before and after treatment (FIG. 10A)."}, "[3]": {"test_system": "FADDdn, caspase-8dn, and HD exon-1 (Q25)-GFP", "assay": "Recruitment of polyglutamine interacting proteins", "format": "cell-based", "details": "HeLa co-transfected with Q-79", "excerpt": "FIG. 7A is a graph of the effect of Congo red or ZVAD on the recruitment of caspase-8, a death domain, or proteins containing short polyglutamine repeats by expanded polyglutamine oligomerization in cells transfected with a Q79-GFP expression construct and a caspase-8 (GFP-casp 8DN), death domain (GFP-FADD DN), or short polyglutamine (HD-1 (Q25)-GFP) protein recruitment.\nWe co-transfected HeLa cells with Q-79 and one of the following expression constructs, GFP-FADDdn (GFP fused to the death domain of FADD adapter protein, that generates a dominant negative FADD polypeptide (missing the first 80 amino acids of the full length protein)), GFP-caspase-8dn (GFP-tagged C360S mutant of caspase-8, generating a dominant negative caspase-8 polypeptide; Sanchez et al., supra), or GFP-exon-1 (Q25) (a GFP fusion construct containing the first exon of human huntingtin protein, encoding a 25 polyglutamine stretch; Kazantsev et al., Proc. Natl. Acad. Sci. USA 96:[…], 1999), in the presence of ZVAD or of Congo red (FIGS. 7A and B)."}, "HD transgenic mice (R62)": {"test_system": "HD transgenic mice (R62)", "assay": "Fasting glucose levels in blood", "format": "in vivo", "details": "6 hours of fasting, intraperitoneal delivery", "excerpt": "FIG. 10B is a table showing the effect of intraperitoneal delivery of Congo red or PBS (vehicle) on fasting glucose levels in wild-type (WT) or HD transgenic mice.\nas §1, with “symptoms. R62 transgenic mice and CBAxC57B1/6 F1 wild type littermates were obtained from Jackson Laboratories (Bar Harbor, Me.) at the age of five weeks.” for “symptoms.”\nR62 mice also develop severe diabetes due to the presence of polyglutamine aggregates in the pancreas. […] The levels of glucose in the blood after 6 hours of fasting were measured from the serum using the Accu-Check strip kit (Roche, Co.)."}}}
{"molecule": "Nc1c(/N=N/c2ccc(-c3ccc(/N=N/c4cc(S(=O)(=O)O)c5ccccc5c4N)cc3)cc2)cc(S(=O)(=O)O)c2ccccc12", "note": "[Congo red, diphenyldiazo-bis-alpha-napthylaminesulfonate]", "values": [{"measurement": "EM48 positive polyglutamine aggregates in the cortex and hippocampus", "setting": "R62 mice; R62 mice", "value": "reduction of EM48 positive polyglutamine aggregates"}, {"measurement": "expanded polyglutamine repeats in the basal ganglia (EM48)", "setting": "R62 mice; R62 mice 12.5 weeks old", "value": "Extensive clearance of expanded polyglutamine repeats"}, {"measurement": "general protein degradation", "setting": "[1]", "value": "neither Congo red nor ZVAD had any effect"}, {"measurement": "body weight, wild-type mice", "setting": "[2]; 9 to 13 weeks, versus vehicle treated wild-type mice", "value": "no change in body weight"}, {"measurement": "loss of body weight, expanded polyglutamine repeat expressing mice", "setting": "[2]; ICV or IP route of delivery", "value": "significantly ameliorated"}, {"measurement": "recruitment of FADDdn, caspase-8dn, and HD exon-1 (Q25)-GFP", "setting": "[3]", "value": "decreased the concurrent recruitment of FADDdn, caspase-8dn, and HD exon-1 (Q25)-GFP"}, {"measurement": "fasting glucose levels in blood", "setting": "HD transgenic mice (R62)", "value": "reduced the fasting glucose levels in blood"}]}
